In patent publication US20120022058A1, “4,5-DIHYDRO-1H-PYRAZOLE COMPOUNDS AND THEIR PHARMACEUTICAL USES” (Pfizer Inc., priority 2009, published 2012) one finds IC50 data, which are given here for 33 molecules.

Molecules are shown by their SMILES. pIC50: −log10 of the molar value.

The test concerns the target T1, MR (Homo sapiens, UniProt P08235).
T1 construct: expressed in transfected cells; host or cells: Huh7 human liver cells, transient transfection
T1 sequence (P08235 726-964 limits assumed): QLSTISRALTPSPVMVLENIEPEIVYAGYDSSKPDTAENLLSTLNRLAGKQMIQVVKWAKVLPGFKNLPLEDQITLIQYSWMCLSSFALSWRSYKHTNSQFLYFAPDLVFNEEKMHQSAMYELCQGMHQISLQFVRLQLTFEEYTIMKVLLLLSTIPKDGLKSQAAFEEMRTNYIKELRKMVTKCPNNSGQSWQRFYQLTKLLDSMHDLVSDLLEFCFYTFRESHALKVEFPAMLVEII
In words: Cell-Based Reporter Assay (Gal4 DBD-MR LBD luciferase reporter, antagonist mode).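 Also: cells co-transfected with a Gal4 response element luciferase plasmid, compound exposure overnight before lysis and luminescence counting, IC50 reflects reduced aldosterone-stimulated reporter signal.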 Particulars: antagonist mode vs aldosterone at EC80; transfected human liver cells (Huh7); luciferase readout; Examples 3, 6, 12 and 13 tested in analogous format with minor variations. A general note: In a reporter assay the amount or activity of a reporter protein is the signal.
As a reminder, the pIC50 is the IC50 on a negative log10 scale, so that one unit is a factor of ten. Lower therefore signals a high IC50. `COC(=O)c1ccc(C2=NN(c3ccc(C#N)c(C)c3)C(C3CCCC3)C2)nc1OC` (stereo not drawn) [Example 1, Methyl 6-(1-(4-cyano-3-methylphenyl)-5-cyclopentyl-4,5-dihydro-1H-pyrazol-3-yl)-2-methoxynicotinate]: the pIC50 is 7.46. In the case of `COC(=O)c1ccc(C2=NN(c3ccc(C#N)c(C)c3)[C@@H](C3CCCC3)C2)nc1OC` [Example 2], the negative logarithm of the IC50 (pIC50) was 8.04. Under `COc1cc(N2N=C(c3ccc(C(=O)O)c(OC)n3)CC2C2CCCC2)ccc1C#N` (stereo not drawn) [Example 6, 6-[1-(4-cyano-3-methoxy-phenyl)-5-cyclopentyl-4,5-dihydro-1H-pyrazol-3-yl]-2-methoxy-nicotinic acid] stands 8.05. `COc1cc(C2=NN(c3ccc(C#N)c(Cl)c3)[C@@H](C3CCCC3)C2)ncc1C(=O)O` [Example 13, (R)-6-(1-(3-chloro-4-cyanophenyl)-5-cyclopentyl-4,5-dihydro-1H-pyrazol-3-yl)-4-methoxynicotinic acid] gave a negative-log IC50 (pIC50) of 5.70. Under `COC(=O)c1ccc(C2=NN(c3ccc(C#N)c(C)n3)[C@@H](C3CCCC3)C2)cc1` [Example 14, (R)-methyl 4-(1-(5-cyano-6-methylpyridin-2-yl)-5-cyclopentyl-4,5-dihydro-1H-pyrazol-3-yl)benzoate] stands below 5.65; under `Cc1nc(N2N=C(c3ccc(C(N)=O)cc3)C[C@@H]2C2CCCC2)ccc1C#N` [Example 16, (R)-4-(1-(5-cyano-6-methylpyridin-2-yl)-5-cyclopentyl-4,5-dihydro-1H-pyrazol-3-yl)benzamide], 7.87.

As to `Cc1nc(N2N=C(c3ccc(S(C)(=O)=O)cc3)C[C@@H]2C2CCCC2)ccc1C#N` [Example 17, (R)-6-(5-cyclopentyl-3-(4-(methylsulfonyl)phenyl)-4,5-dihydro-1H-pyrazol-1-yl)-2-methylnicotinonitrile], the negative-log IC50 (pIC50) was 8.08. Under `Cc1nc(N2N=C(c3ccc4ncn(C)c(=O)c4c3)C[C@@H]2C2CCCC2)ccc1C#N` [Example 18, (R)-6-(5-cyclopentyl-3-(3-methyl-4-oxo-3,4-dihydroquinazolin-6-yl)-4,5-dihydro-1H-pyrazol-1-yl)-2-methylnicotinonitrile] stands 8.72. In turn, `Cc1nc(N2N=C(c3ccc4c(c3)NC(=O)CO4)C[C@@H]2C2CCCC2)ccc1C#N` [Example 19, (R)-6-(5-cyclopentyl-3-(3-oxo-3,4-dihydro-2H-benzo[b][1,4]oxazin-6-yl)-4,5-dihydro-1H-pyrazol-1-yl)-2-methylnicotinonitrile] gave a negative-log IC50 (pIC50) of 7.97.

`Cc1nc(N2N=C(c3ccc(S(N)(=O)=O)cc3)C[C@@H]2C2CCCC2)ccc1C#N` [Example 20, (R)-4-(1-(5-cyano-6-methylpyridin-2-yl)-5-cyclopentyl-4,5-dihydro-1H-pyrazol-3-yl)benzenesulfonamide]: the negative-log IC50 (pIC50) was 7.71. For `Cc1nc(N2N=C(c3cccc(S(C)(=O)=O)c3)C[C@@H]2C2CCCC2)ccc1C#N` [Example 21, (R)-6-(5-cyclopentyl-3-(3-(methylsulfonyl)phenyl)-4,5-dihydro-1H-pyrazol-1-yl)-2-methylnicotinonitrile], the pIC50 is 6.98. Under `CCS(=O)(=O)c1ccc(C2=NN(c3ccc(C#N)c(C)n3)[C@@H](C3CCCC3)C2)cc1` [Example 22, (R)-6-(5-cyclopentyl-3-(4-(ethylsulfonyl)phenyl)-4,5-dihydro-1H-pyrazol-1-yl)-2-methylnicotinonitrile] stands 7.87; under `Cc1cc(C2=NN(c3ccc(C#N)c(C)n3)[C@@H](C3CCCC3)C2)ccc1C#N` [Example 23, (R)-6-(3-(4-cyano-3-methylphenyl)-5-cyclopentyl-4,5-dihydro-1H-pyrazol-1-yl)-2-methylnicotinonitrile], 6.95; under `Cc1cc(C2=NN(c3ccc(C#N)c(C)n3)[C@@H](C3CCCC3)C2)ccc1C(N)=O` [Example 24, (R)-4-(1-(5-cyano-6-methylpyridin-2-yl)-5-cyclopentyl-4,5-dihydro-1H-pyrazol-3-yl)-2-methylbenzamide], 7.60.

Molecule `Cc1nc(N2N=C(c3ccc(NS(C)(=O)=O)cc3)C[C@@H]2C2CCCC2)ccc1C#N` [Example 25, (R)—N-(4-(1-(5-cyano-6-methylpyridin-2-yl)-5-cyclopentyl-4,5-dihydro-1H-pyrazol-3-yl)phenyl)methanesulfonamide] gave a pIC50 of 7.32. `COc1cc(C2=NN(c3ccc(C#N)c(C)n3)[C@@H](C3CCCC3)C2)ccc1C#N` [Example 26, (R)-6-(3-(4-cyano-3-methoxyphenyl)-5-cyclopentyl-4,5-dihydro-1H-pyrazol-1-yl)-2-methylnicotinonitrile] had a negative logarithm of the IC50 (pIC50) of 7.07. Under `COc1cc(C2=NN(c3ccc(C#N)c(C)n3)[C@@H](C3CCCC3)C2)ccc1C(N)=O` [Example 27] stands 8.28; under `COc1cccc(C2=NN(c3ccc(C#N)c(C)n3)[C@@H](C3CCCC3)C2)n1` [Example 28, (R)-6-(5-cyclopentyl-3-(6-methoxypyridin-2-yl)-4,5-dihydro-1H-pyrazol-1-yl)-2-methylnicotinonitrile], 7.01. `Cc1nc(N2N=C(c3cccc(C(N)=O)c3)C[C@@H]2C2CCCC2)ccc1C#N` [Example 29, (R)-3-(1-(5-cyano-6-methylpyridin-2-yl)-5-cyclopentyl-4,5-dihydro-1H-pyrazol-3-yl)benzamide]: the negative logarithm of the IC50 (pIC50) is 7.51.

Consider `Cc1nc(N2N=C(c3ccc4c(c3)CNC4=O)C[C@@H]2C2CCCC2)ccc1C#N` [Example 30, (R)-6-(5-cyclopentyl-3-(1-oxoisoindolin-5-yl)-4,5-dihydro-1H-pyrazol-1-yl)-2-methylnicotinonitrile], for which the negative-log IC50 (pIC50) is 8.01. `Cc1nc(N2N=C(c3ccc4c(c3)C(=O)NC4)C[C@@H]2C2CCCC2)ccc1C#N` [Example 31, (R)-6-(5-cyclopentyl-3-(3-oxoisoindolin-5-yl)-4,5-dihydro-1H-pyrazol-1-yl)-2-methylnicotinonitrile]: the pIC50 was 7.95. Under `COC(=O)c1cc(C2=NN(c3ccc(C#N)c(C)n3)[C@@H](C3CCCC3)C2)ccc1S(C)(=O)=O` [Example 35, (R)-methyl 5-(1-(5-cyano-6-methylpyridin-2-yl)-5-cyclopentyl-4,5-dihydro-1H-pyrazol-3-yl)-2-(methylsulfonyl)benzoate] stands 8.05; under `COc1ccc(C2=NN(c3ccc(C#N)c(C)n3)[C@@H](C3CCCC3)C2)cc1C(=O)O` [Example 36, (R)-5-(1-(5-cyano-6-methylpyridin-2-yl)-5-cyclopentyl-4,5-dihydro-1H-pyrazol-3-yl)-2-methoxybenzoic acid], 6.65; under `COC(=O)c1ccc(C2=NN(c3ccc(C#N)c(C)n3)[C@@H](C3CCCC3)C2)c(OC)c1` [Example 38, (R)-methyl 4-(1-(5-cyano-6-methylpyridin-2-yl)-5-cyclopentyl-4,5-dihydro-1H-pyrazol-3-yl)-3-methoxybenzoate], 7.09.

The molecule `COc1cc(C(=O)O)ccc1C1=NN(c2ccc(C#N)c(C)n2)[C@@H](C2CCCC2)C1` [Example 39, (R)-methyl 4-(1-(5-cyano-6-methylpyridin-2-yl)-5-cyclopentyl-4,5-dihydro-1H-pyrazol-3-yl)-3-methoxybenzoic acid] showed a negative logarithm of the IC50 (pIC50) of 8.15. Turning to `CCOc1cc(C2=NN(c3ccc(C#N)c(C)n3)[C@@H](C3CCCC3)C2)ccc1C(=O)O` [Example 41, (R)-4-(1-(5-cyano-6-methylpyridin-2-yl)-5-cyclopentyl-4,5-dihydro-1H-pyrazol-3-yl)-2-ethoxybenzoic acid], the negative logarithm of the IC50 (pIC50) was 8.04.

`CCOc1cc(C2=NN(c3ccc(C#N)c(C)n3)[C@@H](C3CCCC3)C2)ccc1C(N)=O` [Example 42, (R)-4-(1-(5-cyano-6-methylpyridin-2-yl)-5-cyclopentyl-4,5-dihydro-1H-pyrazol-3-yl)-2-ethoxybenzamide] gave a pIC50 of 8.30. Under `COc1cccc(C2=NN(c3ccc(C#N)c(C)n3)[C@@H](C3CCCC3)C2)c1` [Example 43, (R)-6-(5-cyclopentyl-3-(3-methoxyphenyl)-4,5-dihydro-1H-pyrazol-1-yl)-2-methylnicotinonitrile] stands 6.89. Under `Cc1nc(N2N=C(c3ccc4c(c3)CCC(=O)N4)C[C@@H]2C2CCCC2)ccc1C#N` [Example 45, (R)-6-(5-cyclopentyl-3-(2-oxo-1,2,3,4-tetrahydroquinolin-6-yl)-4,5-dihydro-1H-pyrazol-1-yl)-2-methylnicotinonitrile] stands 7.69; under `Cc1nc(N2N=C(c3ccc4c(c3)OCC(=O)N4)C[C@@H]2C2CCCC2)ccc1C#N` [Example 46, (R)-6-(5-cyclopentyl-3-(3-oxo-3,4-dihydro-2H-benzo[b][1,4]oxazin-7-yl)-4,5-dihydro-1H-pyrazol-1-yl)-2-methylnicotinonitrile], 7.38.

As for `Cc1nc(N2N=C(c3ccc4c(c3)CNC(=O)N4)C[C@@H]2C2CCCC2)ccc1C#N` [Example 47, (R)-6-(5-cyclopentyl-3-(2-oxo-1,2,3,4-tetrahydroquinazolin-6-yl)-4,5-dihydro-1H-pyrazol-1-yl)-2-methylnicotinonitrile], the negative-log IC50 (pIC50) is 7.92. `CCOc1nc(C2=NN(c3ccc(C#N)c(C)n3)[C@@H](C3CCCC3)C2)ccc1C(=O)O` [Example 51, (R)-6-(1-(5-cyano-6-methylpyridin-2-yl)-5-cyclopentyl-4,5-dihydro-1H-pyrazol-3-yl)-2-ethoxynicotinic acid]: the pIC50 was 8.09. Molecule `COc1cc(C2=NN(c3ccc(C#N)c(C)n3)[C@@H](C3CCCC3)C2)ccc1O` [Example 52, (R)-6-(5-cyclopentyl-3-(4-hydroxy-3-methoxyphenyl)-4,5-dihydro-1H-pyrazol-1-yl)-2-methylnicotinonitrile] showed a negative-log IC50 (pIC50) of 7.21.
